Data: patent publication US20090029366A1 (priority 2007, published 2009)

Target: T1, human HCN4 channel (Homo sapiens, UniProt Q9Y3Q4)
T1 construct: expressed in transfected cells; host or cells: CHO-K1
T1 sequence (Q9Y3Q4 1-1203): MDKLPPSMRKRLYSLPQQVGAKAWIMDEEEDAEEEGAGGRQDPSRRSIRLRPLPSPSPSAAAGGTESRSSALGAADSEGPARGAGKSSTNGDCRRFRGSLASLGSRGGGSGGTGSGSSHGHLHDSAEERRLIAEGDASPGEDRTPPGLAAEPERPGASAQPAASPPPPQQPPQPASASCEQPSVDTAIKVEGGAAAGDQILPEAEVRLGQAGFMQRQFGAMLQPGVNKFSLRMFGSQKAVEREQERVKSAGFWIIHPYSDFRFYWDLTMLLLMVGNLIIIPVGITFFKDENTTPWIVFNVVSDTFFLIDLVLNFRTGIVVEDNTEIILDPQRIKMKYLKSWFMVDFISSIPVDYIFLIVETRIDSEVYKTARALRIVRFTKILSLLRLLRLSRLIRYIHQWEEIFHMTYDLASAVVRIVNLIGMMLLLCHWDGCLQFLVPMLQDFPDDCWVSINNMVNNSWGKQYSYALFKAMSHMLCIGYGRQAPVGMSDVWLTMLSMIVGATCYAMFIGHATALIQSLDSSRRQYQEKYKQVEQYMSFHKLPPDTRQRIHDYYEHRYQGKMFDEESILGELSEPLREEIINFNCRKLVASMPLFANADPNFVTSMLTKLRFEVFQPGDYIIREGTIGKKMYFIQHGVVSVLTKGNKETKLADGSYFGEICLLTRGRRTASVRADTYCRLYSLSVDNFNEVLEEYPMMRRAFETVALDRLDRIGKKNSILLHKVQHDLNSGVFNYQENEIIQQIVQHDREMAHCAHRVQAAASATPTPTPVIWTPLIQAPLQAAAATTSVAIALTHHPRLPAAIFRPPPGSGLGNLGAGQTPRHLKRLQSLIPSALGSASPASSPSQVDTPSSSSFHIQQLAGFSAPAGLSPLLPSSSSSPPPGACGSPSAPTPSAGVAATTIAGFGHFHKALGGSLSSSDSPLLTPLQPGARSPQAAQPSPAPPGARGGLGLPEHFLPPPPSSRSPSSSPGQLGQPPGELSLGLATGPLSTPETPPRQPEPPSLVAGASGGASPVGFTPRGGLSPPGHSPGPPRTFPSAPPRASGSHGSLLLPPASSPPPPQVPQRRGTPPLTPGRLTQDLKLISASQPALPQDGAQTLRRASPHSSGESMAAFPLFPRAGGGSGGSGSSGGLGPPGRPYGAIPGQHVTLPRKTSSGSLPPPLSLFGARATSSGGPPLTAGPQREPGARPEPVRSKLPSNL
Experiment: MPSD FLIPR 384 hyperpolarization assay, HCN4 (CHO-K1 cells)
Type: cell-based
Conditions: 50 μM ZD7288
Method: CHO-K1 cells stably expressing a human HCN4 channel were plated as described in Example 3 above. Using a FLIPR®^96 assay, control cells were incubated in 30 μl/well HBSS (Gibco catalog 14025-092 containing NaCl, 137.93; KCl, 5.33; KH2PO4, 0.44; NaHCO3, 4.17; Na2HPO4, 0.34; CaCl2, 1.26; MgCl2, 0.49; MgSO4, 0.41; D-Glucose 5.56). The HBSS was supplemented with MPSD (1 vial/0.5 L). The saline for test cells additionally included 30 μM of the channel inhibitor ZD7288 dissolved in <1.0% DMSO. After 15-30 minutes incubation, background fluorescence was recorded on FLIPR and the membrane hyperpolarization induced by the addition of 200 μl sodium/potassium diluent solution (140 Choline-Cl, 1.0 mM CaCl2, 1.0 mM CaCl2, 10 mM HEPES, 5.5 mM D-glucose, pH 7.3 with TRIS-OH), supplemented with MPSD (1 vial/0.5 L) was recorded on FLIPR.
The FLIPR®^384 well plate was prepared similarly to the FLIPR®^96 well plate except that the amounts of HBSS (optionally, HBSS was supplemented with about 25 to 50 mM of KCl to further enhance assay window) and the sodium/potassium diluent solution were adjusted to keep the dilution ratio of these solutions between about 1:10-1:30, respectively. Additionally, 50 μM ZD7288 was added to the saline containing test cells. […] In addition, less than about 0.02% false positives or false negatives were observed (covariance 11.03 and 12.05, data not shown).

With CCN(c1ccccc1)c1cc(=NC)n(C)c(C)n1.Cl [ZD7288] the “blockade of hyperpolarization of HCN4 channels” value was “effectively blocked hyperpolarization”.
